In patent US20240269139A1, “COMPOUNDS FOR TARGETED PROTEIN DEGRADATION OF KINASES” (DANA-FARBER CANCER INSTITUTE, INC., priority 2020, published 2024):
Where two headings read alike, the source gives them in different places. Blank lines part the entries; values can stand above or below the molecule they belong to.

Legend:
Type in all cases: cell-based
[1] = target: protein kinases (human kinome) (Homo sapiens, UniProt P11802)
From the text: (§1) Although development of targeted protein degraders requires a POI binder, among already-liganded proteins such as kinases, it was hypothesized that different targets would have a different propensity for current approaches to degrader-mediated destruction, which was termed ‘degradability’. […] It was rationalized that the probability of identifying the same kinase as a false positive in multiple treatments is low, therefore this analysis served to also assess the robustness of our data and subsequent interpretations. […] Overall, 62 protein kinases were degraded in more than 10 independent treatments, and remarkably, 9 of these (CDK4, AURKA, FER, WEE1, BLK. LIMK2, CDK6, GAK, LIMK1) were each degraded in at least 40 of the 154 independent treatments, emphasizing their predisposition to induced degradation (FIG. 1G; Appendix I).
(§2) Next, the frequency of degradation assessment was corrected for over-representation of molecules in the full dataset by omitting replicate profiling of compounds under different experimental conditions, to remove any bias. […] Unsurprisingly, the top degradable kinases mirror those from the previous analysis (CDK4, AURKA, FER, WEE1, BLK), confirming that in sufficiently large datasets, even with over-representation of certain molecules, frequency of degradation is a good measure of general tractability.

[2] = target: protein kinases (human kinome) (Homo sapiens, UniProt P30291)
From the text: as §1, §2

[3] = target: protein kinases (human kinome) (Homo sapiens, UniProt P53671); settings: for logFC of LIMK2: LIMK2 P53671; for logFC LIMK2: LIMK2 (P53671), down
From the text: as §1, §2

[4] = target: T1, protein kinases (human kinome) (Homo sapiens, UniProt Q08881); settings: experiment wp134
T1 sequence (Q08881 1-620): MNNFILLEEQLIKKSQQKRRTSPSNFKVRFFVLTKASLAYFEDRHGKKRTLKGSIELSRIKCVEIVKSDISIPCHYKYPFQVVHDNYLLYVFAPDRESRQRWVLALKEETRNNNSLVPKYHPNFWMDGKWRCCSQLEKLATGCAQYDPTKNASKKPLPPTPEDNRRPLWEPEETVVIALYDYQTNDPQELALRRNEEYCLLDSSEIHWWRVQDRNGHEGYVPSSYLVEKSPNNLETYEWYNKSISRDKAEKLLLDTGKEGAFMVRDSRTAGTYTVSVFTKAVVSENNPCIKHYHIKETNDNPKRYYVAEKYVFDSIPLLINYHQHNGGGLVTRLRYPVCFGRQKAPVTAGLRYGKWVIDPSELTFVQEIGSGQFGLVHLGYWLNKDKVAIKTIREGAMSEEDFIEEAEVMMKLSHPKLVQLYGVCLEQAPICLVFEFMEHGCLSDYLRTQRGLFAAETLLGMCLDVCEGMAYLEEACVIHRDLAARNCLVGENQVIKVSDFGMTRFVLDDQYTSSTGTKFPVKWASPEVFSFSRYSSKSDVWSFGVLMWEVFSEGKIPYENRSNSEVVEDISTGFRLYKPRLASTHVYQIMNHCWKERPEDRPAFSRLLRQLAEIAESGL
From the text: as §1, §2

[5] = target: protein kinases (human kinome) (Homo sapiens, UniProt P41240); settings: experiment wp045
From the text: as §1, §2

[6] = target: protein kinases (human kinome) (Homo sapiens, UniProt P42684)
From the text: as §1, §2

[7] = target: protein kinases (human kinome) (Homo sapiens, UniProt P51451); settings: for logFC of BLK (P51451): down
From the text: as §1, §2

[8] = target: protein kinases (human kinome) (Homo sapiens, UniProt Q00537)
From the text: as §1, §2

[9] = system: protein kinases (human kinome); settings: for logFC MAPK14: experiment wp047
From the text: as §1, §2

[10] = target: protein kinases (human kinome) (Homo sapiens, UniProt Q16539)
From the text: as §1, §2

[11] = target: protein kinases (human kinome) (Homo sapiens, UniProt P53667); settings: LIMK1 (P53667-1)
From the text: as §1, §2

[12] = target: T2, protein kinases (human kinome) (Homo sapiens, UniProt O14965)
T2 sequence (O14965 1-403): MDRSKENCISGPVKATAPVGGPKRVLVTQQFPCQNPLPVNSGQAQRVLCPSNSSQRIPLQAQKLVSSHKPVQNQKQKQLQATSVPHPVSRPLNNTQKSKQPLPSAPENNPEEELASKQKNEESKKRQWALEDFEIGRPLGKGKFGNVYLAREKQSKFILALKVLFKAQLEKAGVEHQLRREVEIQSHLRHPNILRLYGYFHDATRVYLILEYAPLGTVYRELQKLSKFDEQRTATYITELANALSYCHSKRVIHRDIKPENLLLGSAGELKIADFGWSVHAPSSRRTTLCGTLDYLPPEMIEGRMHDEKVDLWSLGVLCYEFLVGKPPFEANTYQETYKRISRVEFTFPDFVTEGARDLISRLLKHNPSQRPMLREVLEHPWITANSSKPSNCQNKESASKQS
From the text: as §1, §2

[13] = target: protein kinases (human kinome) (Homo sapiens, UniProt Q2M2I8); settings: experiment wp134
From the text: as §1, §2

[14] = target: T3, protein kinases (human kinome) (Homo sapiens, UniProt Q9UEE5); settings: STK17A Q9UEE5; experiment wp149
T3 sequence (Q9UEE5 1-414): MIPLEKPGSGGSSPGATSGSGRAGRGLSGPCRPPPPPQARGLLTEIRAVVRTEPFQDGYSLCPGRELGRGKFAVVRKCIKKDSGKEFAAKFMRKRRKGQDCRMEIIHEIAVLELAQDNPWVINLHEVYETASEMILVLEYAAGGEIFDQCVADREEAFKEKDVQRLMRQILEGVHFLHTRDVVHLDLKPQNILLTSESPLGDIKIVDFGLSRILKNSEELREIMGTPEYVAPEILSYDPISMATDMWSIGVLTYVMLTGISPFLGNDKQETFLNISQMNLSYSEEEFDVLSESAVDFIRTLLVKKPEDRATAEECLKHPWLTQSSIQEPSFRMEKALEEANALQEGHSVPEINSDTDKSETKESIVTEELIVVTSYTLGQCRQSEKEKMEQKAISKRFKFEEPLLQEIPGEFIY
From the text: as §1, §2

[15] = AURKB Q96GD4-5, experiment wp080

Sequence of protein kinases (human kinome) (Homo sapiens, UniProt P53667) (P53667 whole entry): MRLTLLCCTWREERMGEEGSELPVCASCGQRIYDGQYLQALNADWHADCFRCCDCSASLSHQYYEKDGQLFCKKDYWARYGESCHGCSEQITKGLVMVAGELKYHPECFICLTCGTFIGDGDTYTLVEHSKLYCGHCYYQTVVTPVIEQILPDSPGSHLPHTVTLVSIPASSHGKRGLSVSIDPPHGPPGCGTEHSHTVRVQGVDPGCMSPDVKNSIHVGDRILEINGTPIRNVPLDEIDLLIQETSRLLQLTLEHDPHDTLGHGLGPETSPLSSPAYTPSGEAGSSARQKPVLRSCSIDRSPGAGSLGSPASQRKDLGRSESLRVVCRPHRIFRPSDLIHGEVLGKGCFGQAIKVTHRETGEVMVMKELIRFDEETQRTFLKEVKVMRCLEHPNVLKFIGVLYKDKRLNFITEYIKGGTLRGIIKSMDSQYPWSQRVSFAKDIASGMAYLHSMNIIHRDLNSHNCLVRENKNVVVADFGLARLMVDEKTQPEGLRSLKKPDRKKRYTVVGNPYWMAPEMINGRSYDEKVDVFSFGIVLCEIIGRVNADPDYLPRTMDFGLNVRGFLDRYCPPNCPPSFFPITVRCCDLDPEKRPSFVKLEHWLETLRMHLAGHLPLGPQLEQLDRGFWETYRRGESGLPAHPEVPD
Sequence of protein kinases (human kinome) (Homo sapiens, UniProt P51451) (P51451 whole entry): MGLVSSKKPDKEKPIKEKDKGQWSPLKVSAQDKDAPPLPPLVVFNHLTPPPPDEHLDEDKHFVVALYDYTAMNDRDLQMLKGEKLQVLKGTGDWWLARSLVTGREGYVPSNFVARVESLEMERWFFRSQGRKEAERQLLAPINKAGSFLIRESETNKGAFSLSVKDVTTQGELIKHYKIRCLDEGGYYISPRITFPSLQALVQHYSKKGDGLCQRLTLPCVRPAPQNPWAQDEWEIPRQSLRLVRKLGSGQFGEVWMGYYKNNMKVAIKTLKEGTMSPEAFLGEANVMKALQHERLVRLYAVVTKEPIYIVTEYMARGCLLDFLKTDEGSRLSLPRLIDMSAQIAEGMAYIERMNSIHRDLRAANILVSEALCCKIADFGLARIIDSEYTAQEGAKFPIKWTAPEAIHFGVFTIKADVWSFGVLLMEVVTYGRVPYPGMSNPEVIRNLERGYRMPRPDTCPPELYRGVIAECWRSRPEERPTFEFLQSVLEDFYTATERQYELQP
Sequence of protein kinases (human kinome) (Homo sapiens, UniProt P53671) (P53671 whole entry): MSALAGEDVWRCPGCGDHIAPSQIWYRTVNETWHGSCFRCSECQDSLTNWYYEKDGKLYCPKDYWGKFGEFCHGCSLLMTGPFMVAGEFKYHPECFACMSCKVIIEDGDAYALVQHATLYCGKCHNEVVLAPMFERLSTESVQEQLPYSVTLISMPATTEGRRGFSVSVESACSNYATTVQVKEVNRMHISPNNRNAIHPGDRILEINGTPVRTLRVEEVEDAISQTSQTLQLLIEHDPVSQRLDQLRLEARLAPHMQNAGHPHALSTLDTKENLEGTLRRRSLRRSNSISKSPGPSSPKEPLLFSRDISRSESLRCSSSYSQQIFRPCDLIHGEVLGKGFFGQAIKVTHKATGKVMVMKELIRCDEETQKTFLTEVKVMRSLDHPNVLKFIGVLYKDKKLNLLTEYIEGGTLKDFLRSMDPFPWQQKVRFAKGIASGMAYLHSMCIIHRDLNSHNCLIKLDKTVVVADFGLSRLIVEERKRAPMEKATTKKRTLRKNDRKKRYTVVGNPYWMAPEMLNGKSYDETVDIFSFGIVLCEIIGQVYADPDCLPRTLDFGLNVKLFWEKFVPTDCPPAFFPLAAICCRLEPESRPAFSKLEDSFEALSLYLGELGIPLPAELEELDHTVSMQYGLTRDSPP
Sequence of protein kinases (human kinome) (Homo sapiens, UniProt P30291) (P30291 whole entry): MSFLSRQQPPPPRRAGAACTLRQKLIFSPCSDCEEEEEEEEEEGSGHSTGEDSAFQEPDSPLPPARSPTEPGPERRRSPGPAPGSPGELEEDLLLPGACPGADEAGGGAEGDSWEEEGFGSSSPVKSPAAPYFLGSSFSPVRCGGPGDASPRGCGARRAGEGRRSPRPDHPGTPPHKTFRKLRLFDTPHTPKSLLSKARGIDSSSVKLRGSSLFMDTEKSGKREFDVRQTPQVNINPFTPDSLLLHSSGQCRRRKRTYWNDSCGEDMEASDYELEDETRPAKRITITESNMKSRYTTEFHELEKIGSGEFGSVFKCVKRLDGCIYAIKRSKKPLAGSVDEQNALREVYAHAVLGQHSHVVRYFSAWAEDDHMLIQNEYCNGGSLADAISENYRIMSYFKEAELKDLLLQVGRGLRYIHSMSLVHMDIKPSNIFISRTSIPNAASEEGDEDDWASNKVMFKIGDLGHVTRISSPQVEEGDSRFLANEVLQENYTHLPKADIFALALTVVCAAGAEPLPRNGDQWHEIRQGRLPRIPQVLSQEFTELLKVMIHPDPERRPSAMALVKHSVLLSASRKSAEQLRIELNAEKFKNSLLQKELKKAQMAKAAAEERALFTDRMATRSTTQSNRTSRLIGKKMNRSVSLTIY
Sequence of protein kinases (human kinome) (Homo sapiens, UniProt Q00537) (Q00537 whole entry): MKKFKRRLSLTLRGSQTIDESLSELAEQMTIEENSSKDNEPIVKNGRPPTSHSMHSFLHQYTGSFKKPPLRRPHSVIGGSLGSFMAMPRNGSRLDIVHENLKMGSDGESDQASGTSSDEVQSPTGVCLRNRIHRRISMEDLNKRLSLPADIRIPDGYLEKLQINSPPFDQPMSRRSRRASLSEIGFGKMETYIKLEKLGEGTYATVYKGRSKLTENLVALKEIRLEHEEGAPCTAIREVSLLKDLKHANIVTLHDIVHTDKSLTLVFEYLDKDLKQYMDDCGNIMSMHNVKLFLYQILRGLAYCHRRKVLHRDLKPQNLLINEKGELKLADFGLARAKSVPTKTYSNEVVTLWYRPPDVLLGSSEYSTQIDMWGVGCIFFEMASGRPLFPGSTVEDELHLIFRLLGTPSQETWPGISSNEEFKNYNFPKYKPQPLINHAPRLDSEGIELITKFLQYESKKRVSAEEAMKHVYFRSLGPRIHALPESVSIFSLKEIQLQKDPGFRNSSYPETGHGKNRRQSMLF
Sequence of protein kinases (human kinome) (Homo sapiens, UniProt P11802) (P11802 whole entry): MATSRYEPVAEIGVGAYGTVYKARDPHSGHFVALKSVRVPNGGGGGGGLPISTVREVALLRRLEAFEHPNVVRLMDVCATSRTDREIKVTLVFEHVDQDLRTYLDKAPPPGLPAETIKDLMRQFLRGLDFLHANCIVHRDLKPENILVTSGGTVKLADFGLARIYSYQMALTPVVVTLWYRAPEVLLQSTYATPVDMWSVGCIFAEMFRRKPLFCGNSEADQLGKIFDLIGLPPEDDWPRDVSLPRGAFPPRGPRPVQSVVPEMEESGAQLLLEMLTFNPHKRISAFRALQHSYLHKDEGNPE
Sequence of protein kinases (human kinome) (Homo sapiens, UniProt P42684) (P42684 whole entry): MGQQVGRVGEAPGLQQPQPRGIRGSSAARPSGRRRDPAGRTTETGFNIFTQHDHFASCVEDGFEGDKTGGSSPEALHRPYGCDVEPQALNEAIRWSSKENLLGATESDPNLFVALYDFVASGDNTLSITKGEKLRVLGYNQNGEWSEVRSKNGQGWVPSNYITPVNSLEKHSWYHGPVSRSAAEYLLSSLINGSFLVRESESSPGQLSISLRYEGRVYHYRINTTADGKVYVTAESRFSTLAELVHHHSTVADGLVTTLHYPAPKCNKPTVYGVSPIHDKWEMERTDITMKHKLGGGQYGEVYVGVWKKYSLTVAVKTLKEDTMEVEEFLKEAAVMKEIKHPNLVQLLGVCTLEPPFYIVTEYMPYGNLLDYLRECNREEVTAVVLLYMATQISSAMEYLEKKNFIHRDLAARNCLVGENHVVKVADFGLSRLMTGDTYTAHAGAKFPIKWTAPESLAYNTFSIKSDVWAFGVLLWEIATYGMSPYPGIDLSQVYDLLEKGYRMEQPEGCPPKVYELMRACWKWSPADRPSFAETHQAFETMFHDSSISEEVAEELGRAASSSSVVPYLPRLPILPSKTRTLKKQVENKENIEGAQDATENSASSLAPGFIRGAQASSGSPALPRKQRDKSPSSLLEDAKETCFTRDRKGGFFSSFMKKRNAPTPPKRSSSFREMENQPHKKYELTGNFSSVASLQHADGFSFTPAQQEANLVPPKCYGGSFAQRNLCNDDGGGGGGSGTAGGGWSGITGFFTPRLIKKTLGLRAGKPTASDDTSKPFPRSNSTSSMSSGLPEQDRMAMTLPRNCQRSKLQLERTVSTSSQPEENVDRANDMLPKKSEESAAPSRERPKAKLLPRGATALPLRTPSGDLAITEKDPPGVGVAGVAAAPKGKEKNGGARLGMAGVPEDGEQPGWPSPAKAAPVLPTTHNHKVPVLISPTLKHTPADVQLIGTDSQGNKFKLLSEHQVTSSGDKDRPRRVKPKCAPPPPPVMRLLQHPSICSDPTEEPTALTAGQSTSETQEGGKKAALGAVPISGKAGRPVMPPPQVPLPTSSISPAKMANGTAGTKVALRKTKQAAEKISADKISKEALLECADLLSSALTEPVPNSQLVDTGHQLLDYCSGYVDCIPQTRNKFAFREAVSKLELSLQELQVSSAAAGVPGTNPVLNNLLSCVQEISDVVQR
Sequence of protein kinases (human kinome) (Homo sapiens, UniProt Q16539) (Q16539 whole entry): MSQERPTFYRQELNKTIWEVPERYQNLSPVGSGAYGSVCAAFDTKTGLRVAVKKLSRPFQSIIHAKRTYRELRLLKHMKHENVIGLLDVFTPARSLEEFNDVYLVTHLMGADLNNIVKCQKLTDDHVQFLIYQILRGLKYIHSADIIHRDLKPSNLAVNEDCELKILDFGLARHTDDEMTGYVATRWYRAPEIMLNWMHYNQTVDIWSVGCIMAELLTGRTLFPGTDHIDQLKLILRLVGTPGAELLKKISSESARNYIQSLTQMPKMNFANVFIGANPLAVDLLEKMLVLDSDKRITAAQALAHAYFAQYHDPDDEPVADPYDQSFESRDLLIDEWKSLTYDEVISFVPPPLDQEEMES

Compound: CC(=O)c1c(C)c2cnc(Nc3ccc(N4CCN(CCCCNC(=O)CNc5cccc6c5C(=O)N(C5CCC(=O)NC5=O)C6=O)CC4)cn3)nc2n(C2CCCC2)c1=O (stereo not shown) [BSJ.01.147]
- logFC CDK4 (P11802) ([1]; experiment wp005): −1.415
- logFC CDK4 (P11802) ([1]; experiment wp084): −1.8
- logFC of WEE1 ([2]; WEE1 P30291-1, experiment wp084): −0.5617
- logFC WEE1 (P30291-1) ([2]; experiment wp005): −0.447
- logFC WEE1 (P30291-1) ([2]; experiment wp084): −0.5617

Compound: COc1cc(C)c(Sc2cnc(NC(=O)c3ccc(N4CCN(CCCCCCCNC(=O)COc5cccc6c5C(=O)N(C5CCC(=O)NC5=O)C6=O)CC4)cc3)s2)cc1C(=O)N1CCN(C(C)=O)CC1 (stereo not shown) [BSJ.05.037]
- logFC of LIMK2 ([3]; experiment wp134): −0.4981
- logFC ITK (Q08881) [4]: −1.816

- logFC WEE1 (P30291-1) ([2]; experiment wp045): −0.4161
- logFC of CSK ([5]; Accession P41240): −2.257
- logFC CSK ([5]; CSK (P41240), down): −2.257
- logFC ([6]; ABL2 (P42684) protein abundance, degrader vs DMSO, down): −0.3739
- logFC ABL2 (P42684) ([6]; Experiment wp045): −0.3739
- logFC of BLK ([7]; BLK P51451, experiment wp045): −0.5857
- logFC of BLK (P51451) ([7]; Experiment wp045): −0.5857
Compound: Cc1nc(Nc2ncc(C(=O)Nc3c(C)cccc3Cl)s2)cc(N2CCN(CC(=O)NCCCCNC(=O)COc3cccc4c3C(=O)N(C3CCC(=O)NC3=O)C4=O)CC2)n1 (stereo not shown) [DB.3.291]

Compound: CC(C)(C)c1nc(-c2cccc(NS(=O)(=O)c3c(F)cccc3F)c2F)c(-c2ccnc(NCCOCCNC(=O)CCOCCOCCNc3cccc4c3C(=O)N(C3CCC(=O)NC3=O)C4=O)n2)s1 (stereo not shown) [DD-03-106, N-(2-(2-((4-(2-(tert-butyl)-4-(3-((2,6-difluorophenyl)sulfonamido)-2-fluorophenyl)thiazol-5-yl)pyrimidin-2-yl)amino)ethoxy)ethyl)-3-(2-(2-((2-(2,6-dioxopiperidin-3-yl)-1,3-dioxoisoindolin-4-yl)amino)ethoxy)ethoxy)propenamide]
- preference for degrading CDK17 [8]: strong preference for degrading CDK17
- kinases the bifunctional compound degrades ([9]; as stated for the structure in the embodiments): AURKA, BCKDK, CDK1, CDK16, CDK17, CDK2, CDK3, CDK4, CDK6, COQ8A, COQ8B, CSK, EIF2AK2, LIMK1, LIMK2, MAP3K20, NLK, PLK1, PDK1, PDK2, and TESK2
- Kinase hits ([9]; kinases significantly downregulated vs DMSO (fold change cutoff −1.25, P-value<0.01), ≤8 h, 0.1-5 μM degrader, 7 cell lines): AURKA, BCKDK, CDK1, CDK16, CDK17, CDK2, CDK3, CDK4, CDK6, COQ8A, COQ8B, CSK, EIF2AK2, LIMK1, LIMK2, MAP3K20, NLK, PLK1, PDK1, PDK2, TESK2
- Total no. kinase hits ([9]; number of degraded kinases per library compound): 21

Compound: Cc1ccc(NC(=O)c2cccc(C(C)(C)C#N)c2)cc1Nc1ccc2ncn(CCOCCOCCC(=O)N[C@H](C(=O)N3C[C@H](O)C[C@H]3C(=O)NCc3ccc(-c4scnc4C)cc3)C(C)(C)C)c(=O)c2c1 [DD.02.198]
- logFC ([10]; MAPK14 (Q16539) protein abundance, degrader vs DMSO, down): −1.387
- logFC MAPK14 ([10]; MAPK14, accession Q16539, experiment wp047, direction of change down): −1.387
- logFC MAPK14 ([9]; MAPK14, accession Q16539-2, direction of change down): −0.617
- logFC MAPK14 ([9]; MAPK14 Q16539-2): −0.617

Compound: Cc1ncsc1-c1ccc([C@H](C)NC(=O)[C@@H]2C[C@@H](O)CN2C(=O)[C@@H](NC(=O)CCOCCOCCNc2nccc(-c3sc(C(C)(C)C)nc3-c3cccc(NS(=O)(=O)c4c(F)cccc4F)c3F)n2)C(C)(C)C)cc1 [DD.03.156]
- logFC LIMK1 ([11]; direction down, experiment wp056): −1.037
- logFC LIMK1 ([11]; experiment wp056, down): −1.037
- logFC LIMK2 ([3]; experiment wp056): −1.703
- logFC of LIMK2 ([3]; experiment wp056): −1.703
- logFC of CDK17 ([8]; Accession Q00537, experiment wp056): −1.825
- logFC CDK17 (Q00537) ([8]; experiment wp056, direction of change down): −1.825

Compound: CS(=O)(=O)c1ccc(-c2cccn3nc(Nc4cccc(N5CCN(CCCCCCNC(=O)COc6cccc7c6C(=O)N(C6CCC(=O)NC6=O)C7=O)CC5)c4)nc23)cc1 (stereo not shown) [JWG.120]
- logFC AURKA (O14965) ([12]; experiment wp134): −1.562
- logFC AAK1 ([13]; AAK1 (Q2M218-1), down): −0.3362
- logFC AAK1 ([13]; AAK1, accession Q2M218-1, direction of change down): −0.3362

Compound: CC(=O)c1c(C)c2cnc(Nc3ccc(N4CCN(CC(=O)NCCOCCOCCOCCNc5cccc6c5C(=O)N(C5CCC(=O)NC5=O)C6=O)CC4)cn3)nc2n(C2CCCC2)c1=O (stereo not shown) [YKL.6.102]
- logFC CDK4 (P11802) ([1]; experiment wp005): −0.642
- logFC WEE1 (P30291-1) ([2]; experiment wp005): −0.3649

Compound: CN1c2ccccc2C(=O)Nc2cnc(Nc3ccc(N4CCN(C(=O)CCOCCNc5cccc6c5C(=O)N(C5CCC(=O)NC5=O)C6=O)CC4)cc3)nc21 (stereo not shown) [ZNL.03.127]
- logFC BLK ([7]; BLK (P51451), direction down, experiment wp149): −0.5024
- logFC of BLK (P51451) ([7]; Experiment wp149): −0.5024
- logFC LIMK1 ([11]; direction down, experiment wp149): −0.4764
- logFC LIMK1 ([11]; experiment wp149, down): −0.4764
- logFC LIMK2 ([3]; experiment wp149): −0.3944
- logFC of LIMK2 ([3]; experiment wp149): −0.3944
- logFC [14]: −0.4605
- logFC STK17A [14]: −0.4605
- logFC TNK2 (Q07912-3) ([9]; Experiment wp149, direction down): −0.8778
- logFC ([9]; TNK2 (Q07912-3), experiment wp149, direction down): −0.8778

Compound: COc1cc(Nc2ncc3c(n2)-c2ccc(Cl)cc2C(c2c(F)cccc2OC)=NC3)ccc1C(=O)NCCCOCCOCCOCCCNC(=O)COc1cccc2c1C(=O)N(C1CCC(=O)NC1=O)C2=O (stereo not shown) [dAURK.4]
- logFC AURKA (O14965) ([12]; experiment wp080): −1.055
- logFC [9, 15]: −0.3932
- logFC AURKB [9, 15]: −0.3932
